Assay results published in ChEMBL document CHEMBL1201862, “PubChem BioAssay data set” (2004).
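Method: 48-hour compound exposure of cells in 96-well plates, five concentrations, linear interpolation of endpoints. GI50 marks 50% less growth.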 The source made the active and inactive calls. Rule as the data show it: active = GI50 up to about 1.1 µM and inactive = higher.

Tests used:
Experiment in all cases: NCI anticancer screen, dose series, 48 h
UACC-257 = test system: UACC-257
KM12 = test system: KM12
786-0 = test system: 786-0
LOX IMVI = test system: LOX IMVI
CAKI-1 = test system: CAKI-1
NCI-H522 = test system: NCI-H522
BT-549 = test system: BT-549
HCT-15 = test system: HCT-15
OVCAR-3 = test system: OVCAR-3
HCT-116 = test system: HCT-116
EKVX = test system: EKVX
UACC-62 = test system: UACC-62
SN12C = test system: SN12C
MDA-MB-231 = test system: MDA-MB-231
NCI-H23 = test system: NCI-H23
SK-OV-3 = test system: SK-OV-3
OVCAR-5 = test system: OVCAR-5
IGROV-1 = test system: IGROV-1
SR = test system: SR
MCF7 = test system: MCF7

SMILES	GI50 (UACC-257)	GI50 (KM12)	GI50 (786-0)	GI50 (LOX IMVI)	GI50 (CAKI-1)	GI50 (NCI-H522)	GI50 (BT-549)	GI50 (HCT-15) [µM]	GI50 (OVCAR-3)	GI50 (HCT-116)	GI50 (EKVX)	GI50 (UACC-62)	GI50 (SN12C)	GI50 (MDA-MB-231)	GI50 (NCI-H23)	GI50 (SK-OV-3)	GI50 (OVCAR-5)	GI50 (IGROV-1)	GI50 (SR)	GI50 (MCF7)
O=[N+]([O-])c1cccc(/N=N/c2c(O)ccc3ccccc23)c1	> 100 µM (inactive)	42.4 µM (inactive)	69.7 µM (inactive)	> 100 µM (inactive)	> 100 µM (inactive)	45.1 µM (inactive)	43.8 µM (inactive)	44.6	> 10 µM (inactive)	> 100 µM (inactive)	35.2 µM (inactive)	41.4 µM (inactive)	> 100 µM (inactive)	56.4 µM (inactive)	70.8 µM (inactive)	35.2 µM (inactive)	> 100 µM (inactive)	94.8 µM (inactive)		
Cc1nc(=O)[nH]c(NCCNCCO)c1C(=O)Nc1cccc2cc3ccccc3cc12	> 100 µM (inactive)	> 100 µM (inactive)	> 100 µM (inactive)	> 100 µM (inactive)	> 100 µM (inactive)	> 100 µM (inactive)	> 100 µM (inactive)	> 100	> 100 µM (inactive)	> 100 µM (inactive)	> 100 µM (inactive)	> 100 µM (inactive)	> 100 µM (inactive)	> 100 µM (inactive)	> 100 µM (inactive)		> 100 µM (inactive)	> 100 µM (inactive)	> 100 µM (inactive)	
COc1cc(/C=C2\N=C(c3ccccc3)N(c3ccc4c(c3)Sc3cc(N5C(=O)/C(=C/c6cc(OC)c(OC)c(OC)c6)N=C5c5ccccc5)ccc3N4)C2=O)cc(OC)c1OC	16.9 µM (inactive)	> 100 µM (inactive)	20.9 µM (inactive)	22.4 µM (inactive)	18.5 µM (inactive)	17.1 µM (inactive)	23.4 µM (inactive)	> 100	20.8 µM (inactive)	42 µM (inactive)	22.8 µM (inactive)	16.9 µM (inactive)	25.9 µM (inactive)	25.7 µM (inactive)	19.3 µM (inactive)	21.3 µM (inactive)	20.6 µM (inactive)	17 µM (inactive)		21 µM (inactive)
CS(=O)(=O)c1ccc(NNc2cc(=O)[nH]c(=O)[nH]2)cc1	> 100 µM (inactive)	> 100 µM (inactive)	> 100 µM (inactive)	> 100 µM (inactive)	> 10 µM (inactive)	21.7 µM (inactive)	> 100 µM (inactive)	> 100	> 100 µM (inactive)	> 100 µM (inactive)		> 100 µM (inactive)	> 100 µM (inactive)	> 100 µM (inactive)	> 100 µM (inactive)	> 100 µM (inactive)	> 100 µM (inactive)	> 100 µM (inactive)	> 100 µM (inactive)	
c1nc(NCCc2c[nH]cn2)c2nc[nH]c2n1	> 100 µM (inactive)	> 100 µM (inactive)	> 100 µM (inactive)	> 100 µM (inactive)	> 100 µM (inactive)	> 100 µM (inactive)	> 100 µM (inactive)	> 100	> 100 µM (inactive)	> 100 µM (inactive)	46.2 µM (inactive)	> 100 µM (inactive)	> 100 µM (inactive)	> 100 µM (inactive)	> 100 µM (inactive)	> 100 µM (inactive)	> 100 µM (inactive)	> 100 µM (inactive)	> 100 µM (inactive)	
NC(=S)N/N=C1\C(=O)C=C(Nc2ccc(Cl)cc2Cl)c2ccccc21	> 100 µM (inactive)	> 100 µM (inactive)	7.85 µM (inactive)	25.3 µM (inactive)	15.8 µM (inactive)		18.7 µM (inactive)	31.1	21.3 µM (inactive)	56.2 µM (inactive)	22.1 µM (inactive)	2.64 µM (inactive)	> 100 µM (inactive)	10.3 µM (inactive)	23.2 µM (inactive)	12.4 µM (inactive)	> 100 µM (inactive)	22.2 µM (inactive)		48.9 µM (inactive)
